This is an account of results in US12365901B2, “Application of mechanical-force sensitive macrophage subset in pancreatic cancer diagnosis or prognosis evaluation” (priority 2023, dated 2025).

The test system of one series is THP-1 macrophages. Nature of the series: Elastic modulus of siRNA-transfected, PMA-induced THP-1 cells measured by nanoindenter. To be noted: compared with control group si-NC; PMA 50 ng/ml for 24 hours. The series is classed as cell-based, human. On the procedure: (§1) 1) Transfection of THP-1 cells: the cells were inoculated into a 24-well plate at a density of 2.5×10^5/ well. A transfection reagent was prepared: A: 50 μL of low serum culture medium (Opti-MEM I Reduced Serum Medium, Cat. No. 31985070, Gibco) was added with 3 μL of transfection reagent (Lipofectamine™ RNAiMAX Transfection Reagent, Cat. No. 13778075, Invitrogen). B: 50 μL of low serum culture medium (Opti-MEM I Reduced Serum Medium, Cat. No. 31985070, Gibco) was added with 1 μL of siRNA (RIBO BIO). A and B were mixed and incubated at room temperature for 5 minutes, and 50 μL of the mixture was added with the THP-1 cells to culture overnight.
(§2) 2) A cell suspension was collected and centrifuged at 1000 rpm and room temperature for 5 minutes, a supernatant was removed, and PMA (50 ng/ml, Cat. No. p1585, Sigma) was added to induce for 24 hours.
3) The cell culture medium was replaced by PBS, an instrument was calibrated by using a confocal dish, and then an elastic modulus of the cells was measured.

The next series has as its system THP-1 cells. Nature of the series: Flow cytometry of CD11b and CD68 after THP-1 cells are differentiated into macrophages. The series is classed as cell-based, human. To be noted: flow cytometry after PMA-induced differentiation. On the procedure: as §1, §2
4) The cells were collected, centrifuged, washed with PBS once, then added with 1 μL of Fixable Viability Stain 780 (Cat No. 565388, BD), mixed evenly, incubated on ice for 20 minutes, and washed with an FACS Buffer (2% BSA in PBS) twice. The solution was added with 2.5 μL of FC blocking antibody (Cat. No. 422302, Biolegend), blocked on ice for 20 minutes, then added with 2.5 μL of CD14-BV421 (Cat. No. 563743, BD) antibody and 1 μL of CD11b-PE (Cat. No. 101207, Biolegend) antibody, incubated on ice in the dark for 20 minutes, and then washed with an FACS Buffer twice. The solution was added with 100 μL of cell fixing solution (Cat. No. 00-8222-49, eBioscience), incubated at room temperature in the dark for 40 minutes, and then washed with a prepared membrane permeation solution (Cat. No. 00-8333-56, eBioscience) twice. The cells were resuspended to 100 μL of membrane permeation solution, added with 1.5 μL of CD68-AF647 (Cat. No. 333820, Biolegend), incubated on ice in the dark for 20 minutes, then washed with the membrane permeation solution twice, resuspended to 100 μL of FACS buffer, and detected on a computer.

With “si-Ptk2b_1: siRNA targeting human Ptk2b gene: GGATCATCATGGAATTGTA (SEQID NO. 1) (listed as DNA, chemistry not given here)”, the “elastic modulus of the THP-1 macrophages” value in the series on THP-1 macrophages is listed as “significantly reduce”. Moreover, in the series with THP-1 cells, the “fluorescence intensity of CD11b of the THP-1 cells” value was “significantly inhibit” and the “fluorescence intensity of CD68 of the THP-1 cells” value is listed as “significantly inhibit”.

As to “si-Ptk2b_2: siRNA targeting human Ptk2b gene: GGACGAGGACTATTACAAA (SEQID NO. 2) (listed as DNA, chemistry not given here)”, in the series with THP-1 macrophages, the “elastic modulus of the THP-1 macrophages” value is listed as “significantly reduce”. Further, in the series with THP-1 cells, the “fluorescence intensity of CD11b of the THP-1 cells” value is given as “significantly inhibit” and the “fluorescence intensity of CD68 of the THP-1 cells” value was “significantly inhibit”.

Turning to “si-Ptk2b_3: siRNA targeting human Ptk2b gene: CACATGAAGTCCGATGAGA (SEQID NO. 3) (listed as DNA, chemistry not given here)”, the “elastic modulus of the THP-1 macrophages” value with THP-1 macrophages is “significantly reduce”. Besides, in the series with THP-1 cells, the “fluorescence intensity of CD11b of the THP-1 cells” value is on record as “significantly inhibit” and the “fluorescence intensity of CD68 of the THP-1 cells” value is recorded as “significantly inhibit”.
